Measurements from paper PMC10987480, “Biological and mutational analyses of CXCR4–antagonist interactions and design of new antagonistic analogs” (Bioscience Reports, 2023).
Positions of bridges follow the written chain, without caps; N, C: chain ends. Non-standard residues stand in square brackets, D forms with d. Chains are numbered I, II in the order given. No end group written: not given here.

What was measured:
[1] = biological target: T1, CXCR4 (Homo sapiens, UniProt P61073); assay: SDF-1α-induced calcium mobilization assay in SupT1 cells (Fluo-4); assay type: cell-based; set-up: host or cells: SupT1 cells; conditions: 50 nM SDF-1α
T1 sequence (P61073 whole entry): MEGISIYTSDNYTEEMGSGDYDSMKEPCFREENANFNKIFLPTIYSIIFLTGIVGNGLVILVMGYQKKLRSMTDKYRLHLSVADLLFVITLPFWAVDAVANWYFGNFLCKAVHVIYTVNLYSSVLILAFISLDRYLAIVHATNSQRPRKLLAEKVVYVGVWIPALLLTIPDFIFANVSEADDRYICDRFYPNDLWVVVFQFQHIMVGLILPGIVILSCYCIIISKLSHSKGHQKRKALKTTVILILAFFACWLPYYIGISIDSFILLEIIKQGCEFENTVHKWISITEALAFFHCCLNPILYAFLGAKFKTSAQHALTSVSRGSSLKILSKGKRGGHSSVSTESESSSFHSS
Procedure: (§1) Figure 2 The inhibitory effect of the antagonists on SDF-1α-induced cell chemotaxis and calcium mobilization in SupT1 cells The antagonists and concentrations used were labeled in each lane. (A) The inhibition of cell migration by the noted antagonists. SupT1 cells pre-treated with or without CXCR4 antagonists were seeded in the upper well and cell migrated by 2 nM SDF-1α. Migrated cells without SDF-1α were used as a negative (0%) and migrated cell induced by SDF-1α as a positive control (100%). […] SupT1 cells were treated with or without CXCR4 antagonists and activated by 50 nM SDF-1α. To directly compare the inhibitory effect of the antagonists on calcium mobilization, the vehicle background and baseline were removed using GraphPad and Origin. The data were averages of at least three independent experiments.
SupT1 cells were collected and washed using HHBS buffer (Hanks’ Balanced Salt solution supplemented with 20 mM HEPES) and incubated with 1 mM probenecid (Energy Chemical, China) and 4 μM Fluo-4 (AAT bioquest, U.S.A.) for 37°C for 30 min with vortex every 5 min. After being washed with HHBS, cells were suspended in PBS at 2 × 10^6/ml and seeded 200 μl cells and various concentrations of compounds per well in 96-well plate. Following 50 nM SDF-1α was added to each well, the fluorescence intensity was measured (Ex/Em = 496/516 nm) using EnSpire® multimode plate reader (PerkinElmer, U.S.A.).

[2] = biological target: T2, CXCR4 N119A (Homo sapiens, UniProt P61073, N119A); assay: Competitive binding to CXCR4 mutant N119A (12G5, CHO cells); conditions: TM3, class of reduction vs wild-type CXCR4, 12G5 competition, averages of at least three independent experiments
T2 construct: expressed in transfected cells
T2 sequence (P61073 whole entry N119A): as the sequence (P61073 whole entry) above, with N119A counted along it
Procedure: (§2) Plasmid pcDNA3-CXCR4 and mutated pcDNA3-CXCR4 were extracted and transfected into CHO cells using Lipofectamine 2000 according to the manufacturer’s guidelines. The selective medium containing G418 at a concentration of 1.2 mg/ml was applied to isolate stably transfected cells. CHO cells expressing wild-type CXCR4 and mutant CXCR4 were obtained using fluorescence-activated cell sorting (FACS).
(§3) All of the CXCR4 mutants were prepared using PCR technology. Briefly, pairs of asymmetrical primers containing the desired amino acid mutations (Supplementary Tables S1 and S2), each complementary to opposite strands of the pcDNA3–CXCR4, were designed for amplification by Q5® High-Fidelity DNA polymerase and the generation of mutated constructs. The methylated pcDNA3–CXCR4 templates were digested by DpnI. The mutated pcDNA3–CXCR4 was transformed into competent E. coli TOP10 for long-term storage and amplification.
(§4) The procedure for the CXCR4 competitive binding experiments was published previously. Briefly, CXCR4 antibody 12G5 (250 ng/ml) was incubated with 5 × 10^5 cells and varying concentrations of unlabeled compounds in a final volume of 100 μl of assay buffer (PBS with 0.5% BSA and 0.05% NaN3) in 96-well plates for 40 min on ice, after being washed with assay buffer once. The cells were incubated with FITC-conjugated second antibody IgG for 30 min on ice, then washed with assay buffer three times. The fluorescence intensity was measured for excitation at 485 nm and emission at 535 nm using multimode plate reader (PerkinElmer). The IC50 values were calculated using graphpad Prism 7. Experiments were performed at least three times.

[3] = biological target: T3, CXCR4 W94A (Homo sapiens, UniProt P61073, W94A); assay: Competitive binding to CXCR4 mutant W94A (12G5, CHO cells); conditions: TM2, class of reduction vs wild-type CXCR4, 12G5 competition, averages of at least three independent experiments
T3 construct: expressed in transfected cells
T3 sequence (P61073 whole entry W94A): as the sequence (P61073 whole entry) above, with W94A counted along it
Procedure: as §2, §3, §4

[4] = biological target: T4, CXCR4 E288D (Homo sapiens, UniProt P61073, E288D); assay: Competitive binding to CXCR4 mutant E288D (12G5, CHO cells); conditions: TM7, class of reduction vs wild-type CXCR4, 12G5 competition, averages of at least three independent experiments
T4 construct: expressed in transfected cells
T4 sequence (P61073 whole entry E288D): as the sequence (P61073 whole entry) above, with E288D counted along it
Procedure: as §2, §3, §4

[5] = biological target: T5, CXCR4 D97A (Homo sapiens, UniProt P61073, D97A); assay: Competitive binding to CXCR4 mutant D97A (12G5, CHO cells); conditions: TM2, class of reduction vs wild-type CXCR4, 12G5 competition, averages of at least three independent experiments
T5 construct: expressed in transfected cells
T5 sequence (P61073 whole entry D97A): as the sequence (P61073 whole entry) above, with D97A counted along it
Procedure: as §2, §3, §4

[6] = biological target: T6, CXCR4 F87A (Homo sapiens, UniProt P61073, F87A); assay: Competitive binding to CXCR4 mutant F87A (12G5, CHO cells); conditions: TM2, class of reduction vs wild-type CXCR4, 12G5 competition, averages of at least three independent experiments
T6 construct: expressed in transfected cells
T6 sequence (P61073 whole entry F87A): as the sequence (P61073 whole entry) above, with F87A counted along it
Procedure: as §2, §3, §4

[7] = biological target: T7, CXCR4 D262E (Homo sapiens, UniProt P61073, D262E); assay: Competitive binding to CXCR4 mutant D262E (12G5, CHO cells); conditions: TM6, class of reduction vs wild-type CXCR4, 12G5 competition, averages of at least three independent experiments
T7 construct: expressed in transfected cells
T7 sequence (P61073 whole entry D262E): as the sequence (P61073 whole entry) above, with D262E counted along it
Procedure: as §2, §3, §4

[8] = biological target: T8, CXCR4 D262N (Homo sapiens, UniProt P61073, D262N); assay: Competitive binding to CXCR4 mutant D262N (12G5, CHO cells); conditions: TM6, class of reduction vs wild-type CXCR4, 12G5 competition, averages of at least three independent experiments
T8 construct: expressed in transfected cells
T8 sequence (P61073 whole entry D262N): as the sequence (P61073 whole entry) above, with D262N counted along it
Procedure: as §2, §3, §4

[9] = biological target: T9, CXCR4 Y45A (Homo sapiens, UniProt P61073, Y45A); assay: Competitive binding to CXCR4 mutant Y45A (12G5, CHO cells); conditions: TM1, class of reduction vs wild-type CXCR4, 12G5 competition, averages of at least three independent experiments
T9 construct: expressed in transfected cells
T9 sequence (P61073 whole entry Y45A): as the sequence (P61073 whole entry) above, with Y45A counted along it
Procedure: as §2, §3, §4

[10] = biological target: T10, CXCR4 Q200A (Homo sapiens, UniProt P61073, Q200A); assay: Competitive binding to CXCR4 mutant Q200A (12G5, CHO cells); set-up: key to the marks not given beside the values; conditions: TM5, class of reduction vs wild-type CXCR4, 12G5 competition, averages of at least three independent experiments
T10 construct: expressed in transfected cells
T10 sequence (P61073 whole entry Q200A): as the sequence (P61073 whole entry) above, with Q200A counted along it
Procedure: as §2, §3, §4

[11] = biological target: T1, CXCR4; assay: SDF-1α-induced cell migration assay in SupT1 cells (transwell); assay type: cell-based; set-up: host or cells: SupT1 cells; conditions: 2 nM SDF-1α, 30 min pre-incubation, 3 h migration
Procedure: as §1
SupT1 cells (2 × 10^6 cells per well in 75 μl) were collected and washed using assay buffer (RPMI 1640 supplemented with 0.5% BSA) and incubated with various concentrations of tested compounds for 30 min in the upper well of the transwell-96 well plates with 5.0 µm pore polycarbonate membrane insert (Corning, U.S.A.). Then, 200 μl assay buffer containing 2 nM SDF-1α was added to the lower well and cells were allowed to migrate for 3 h. Migrated cells were measured using celltiter-96 reagent.

[12] = biological target: T11, CXCR4 E288A (Homo sapiens, UniProt P61073, E288A); assay: Competitive binding to CXCR4 mutant E288A (12G5, CHO cells); conditions: TM7, class of reduction vs wild-type CXCR4, 12G5 competition, averages of at least three independent experiments
T11 construct: expressed in transfected cells
T11 sequence (P61073 whole entry E288A): as the sequence (P61073 whole entry) above, with E288A counted along it
Procedure: as §2, §3, §4

[13] = system: CXCR4; conditions: read-out: IC50; cited from earlier work
From the text: To understand the receptor–ligand recognition mechanism involving CXCR4 and its antagonists, here in this study we conducted a series of comparative analyses of the biological activities and CXCR4 binding sites of eleven known CXCR4 antagonists, including the three mentioned above, using cell-based bioassays, CXCR4 site-directed mutagenesis and computer-aided molecular modeling. These antagonists studied here were chosen from different representative structural types including both D-peptides (i.e., HC4319, DV1, DV1 dimer, and DV3) and a representative counterpart L-peptide (i.e., V1) derived ...

Row | Substance | inhibition at 1 µM ([1]; SUP-T1, at 1 μM) | Competitive receptor binding activity, CXCR4 N119A [2] | Competitive receptor binding activity, CXCR4 W94A [3] | Competitive receptor binding activity, CXCR4 E288D [4] | Competitive receptor binding activity, CXCR4 D97A [5] | Competitive receptor binding activity, CXCR4 F87A [6] | Competitive receptor binding activity, CXCR4 D262E [7] | Competitive receptor binding activity, CXCR4 D262N [8] | Competitive receptor binding activity, CXCR4 Y45A [9] | Competitive receptor binding activity, CXCR4 Q200A [10] | inhibition at 2 µM ([11]; SUP-T1, at 2 μM) | Competitive receptor binding activity, CXCR4 E288A [12] | IC50 [13] | Inhibition of the calcium signal ([1]; at 50 nM) | Inhibition of cell migration ([11]; at 50 nM)
1 | I: [dL]G[dA][dS][dW][dH][dR][dP][dD][dK][dC][dC][dL]G[dY][dQ][dK][dR][dP][dL][dP] / II: [dL]G[dA][dS][dW][dH][dR][dP][dD][dK][dC][dC][dL]G[dY][dQ][dK][dR][dP][dL][dP] (disulfide I:11-II:11, I:12-II:12) [DV1 dimer] | 75% | + (30–60% reduction compared with wild-type CXCR4) | + (30–60% reduction compared with wild-type CXCR4) | ++ (10–29% reduction compared with wild-type CXCR4) | ++ (10–29% reduction compared with wild-type CXCR4) | + (30–60% reduction compared with wild-type CXCR4) | ++ (10–29% reduction compared with wild-type CXCR4) | + (30–60% reduction compared with wild-type CXCR4) | ++ (10–29% reduction compared with wild-type CXCR4) | +++ | 43% | + (30–60% reduction compared with wild-type CXCR4) | – | – | –
2 | LGASWHRPDKCCLGYQKRPLPQVLLSSWYPTSQLCSKPGVIFLTKRGRQVCADKSKDWVKKLMQQLPVTAR [vMIP-II, viral macrophage-inflammatory protein-II, full-length natural chemokine antagonist produced by human herpesvirus-8; recombinant from Peprotech] | – | ++ (10–29% reduction compared with wild-type CXCR4) | + (30–60% reduction compared with wild-type CXCR4) | +++ | ++ (10–29% reduction compared with wild-type CXCR4) | + (30–60% reduction compared with wild-type CXCR4) | ++ (10–29% reduction compared with wild-type CXCR4) | +++ | +++ | +++ | – | +++ | 5.8 nM | 64% | 64%
